Measurements published in US12473304B2, “Heterocyclic PAD4 inhibitors” (BRISTOL-MYERS SQUIBB COMPANY, priority 2020, dated 2025).

The molecules below were run against human PAD4 (hPAD4) (Homo sapiens (Human), UniProt Q9UM07) (assay: RFMS Human PAD4 Functional Assay 1). Settings: RFMS assay 1; 5 nM hPAD4, 250 μM BAEE substrate, 50 μM calcium, 37° C.
Assay type: biochemical
How it was run: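 Citrullination product read by RapidFire triple-quad MRM against a modified-citrulline internal standard, after TCA stop and 30 min phenyl glyoxal step at 37 °C. Reaction: 250 μM BAEE, 5 nM human PAD4, 90 min at 37 °C, pH 7.5 HEPES buffer with 50 μM calcium and 5 μM TPEN, following 30 min compound–enzyme preincubation (max 50 μM).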

Chain of human PAD4 (hPAD4) (Q9UM07 whole entry): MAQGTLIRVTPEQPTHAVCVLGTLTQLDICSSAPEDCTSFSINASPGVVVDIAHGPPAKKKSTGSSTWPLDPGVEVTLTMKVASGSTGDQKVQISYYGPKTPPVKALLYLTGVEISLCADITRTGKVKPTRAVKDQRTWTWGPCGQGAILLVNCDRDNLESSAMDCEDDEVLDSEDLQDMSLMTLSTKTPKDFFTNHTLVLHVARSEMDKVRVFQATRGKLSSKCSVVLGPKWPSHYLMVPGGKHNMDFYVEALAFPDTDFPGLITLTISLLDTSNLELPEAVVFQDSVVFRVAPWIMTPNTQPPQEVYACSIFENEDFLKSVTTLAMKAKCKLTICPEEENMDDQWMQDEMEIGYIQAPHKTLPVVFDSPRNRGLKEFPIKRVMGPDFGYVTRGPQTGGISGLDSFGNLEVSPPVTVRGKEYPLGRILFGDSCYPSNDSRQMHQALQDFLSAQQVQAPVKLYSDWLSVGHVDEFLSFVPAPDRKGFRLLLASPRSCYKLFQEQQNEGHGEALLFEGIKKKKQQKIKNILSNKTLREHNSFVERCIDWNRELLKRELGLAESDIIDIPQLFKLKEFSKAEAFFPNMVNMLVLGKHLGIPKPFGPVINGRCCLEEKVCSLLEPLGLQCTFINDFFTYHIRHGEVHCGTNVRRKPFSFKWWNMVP

Row | Structure (SMILES) | IC50
1 | Cc1c(-c2cc3cccc(C4CCN(C(=O)C(C)(C)CO)CC4)c3n2CC2CC2)nn2cc(C(=O)N3CCC[C@@H](N)C3)ccc12 [Example 434, (R)-1-(4-(2-(6-(3-aminopiperidine-1-carbonyl)-3-methylpyrazolo[1,5-a]pyridin-2-yl)-1-(cyclopropylmethyl)-1H-indol-7-yl)piperidin-1-yl)-3-hydroxy-2,2-dimethylpropan-1-one] | 250 nM
2 | Cc1c(-c2cc3cccc(C4CCN(C(=O)C(C)(C)O)CC4)c3n2CC2CC2)nn2cc(C(=O)N3C[C@H](N)C[C@@H](F)C3)ccc12 [Example 435, 1-(4-(2-(6-((3R,5R)-3-amino-5-fluoropiperidine-1-carbonyl)-3-methylpyrazolo[1,5-a]pyridin-2-yl)-1-(cyclopropylmethyl)-1H-indol-7-yl)piperidin-1-yl)-2-hydroxy-2-methylpropan-1-one] | 380 nM
3 | Cc1c(-c2cc3cccc(C4CCN(C(=O)C(C)(C)O)CC4)c3n2CC2CC2)nn2cc(C(=O)N3CCC[C@@H](N)C3)ccc12 [Example 436, (R)-1-(4-(2-(6-(3-aminopiperidine-1-carbonyl)-3-methylpyrazolo[1,5-a]pyridin-2-yl)-1-(cyclopropylmethyl)-1H-indol-7-yl)piperidin-1-yl)-2-hydroxy-2-methylpropan-1-one] | 300 nM
4 | Cc1c(-c2cc3cccc(C4CCN(C(=O)CCO)CC4)c3n2CC2CC2)nn2cc(C(=O)N3CCC[C@@H](N)C3)ccc12 [Example 437, (R)-1-(4-(2-(6-(3-aminopiperidine-1-carbonyl)-3-methylpyrazolo[1,5-a]pyridin-2-yl)-1-(cyclopropylmethyl)-1H-indol-7-yl)piperidin-1-yl)-3-hydroxypropan-1-one] | 110 nM
5 | Cc1c(-c2cc3cccc(C4CCN(C(=O)[C@@H]5CCC[C@H](O)C5)CC4)c3n2CC2CC2)nn2cc(C(=O)N3CCC[C@@H](N)C3)ccc12 [Example 440, ((R)-3-aminopiperidin-1-yl)(2-(1-(cyclopropylmethyl)-7-(1-((1R,3S)-3-hydroxycyclohexane-1-carbonyl)piperidin-4-yl)-1H-indol-2-yl)-3-methylpyrazolo[1,5-a]pyridin-6-yl)methanone] | 60 nM
6 | CCOCC(=O)N1CCC(c2cccc3cc(-c4nn5cc(C(=O)N6CCC[C@@H](N)C6)ccc5c4C)n(CC4CC4)c23)CC1 [Example 441, (R)-1-(4-(2-(6-(3-aminopiperidine-1-carbonyl)-3-methylpyrazolo[1,5-a]pyridin-2-yl)-1-(cyclopropylmethyl)-1H-indol-7-yl)piperidin-1-yl)-2-ethoxyethan-1-one] | 60 nM
7 | Cc1c(-c2cc3cccc(C4CCN(C(=O)[C@H]5CC[C@H](O)CC5)CC4)c3n2CC2CC2)nn2cc(C(=O)N3CCC[C@@H](N)C3)ccc12 [Example 443, ((R)-3-aminopiperidin-1-yl)(2-(1-(cyclopropylmethyl)-7-(1-((1r,4r)-4-hydroxycyclohexane-1-carbonyl)piperidin-4-yl)-1H-indol-2-yl)-3-methylpyrazolo[1,5-a]pyridin-6-yl)methanone] | 130 nM
8 | Cc1c(-c2cc3cccc(C4CCN(C(=O)CC(C)C)CC4)c3n2CC2CC2)nn2cc(C(=O)N3C[C@H](N)C[C@@H](F)C3)ccc12 [Example 445, 1-(4-(2-(6-((3R,5R)-3-amino-5-fluoropiperidine-1-carbonyl)-3-methylpyrazolo[1,5-a]pyridin-2-yl)-1-(cyclopropylmethyl)-1H-indol-7-yl)piperidin-1-yl)-3-methylbutan-1-one] | 160 nM
9 | Cc1c(-c2cc3cccc(C4CCN(C(=O)CC(C)C)CC4)c3n2CC2CC2)nn2cc(C(=O)N3CCC[C@@H](N)C3)ccc12 [Example 446, (R)-1-(4-(2-(6-(3-aminopiperidine-1-carbonyl)-3-methylpyrazolo[1,5-a]pyridin-2-yl)-1-(cyclopropylmethyl)-1H-indol-7-yl)piperidin-1-yl)-3-methylbutan-1-one] | 130 nM
10 | Cc1c(-c2cc3cccc(C4CCN(C(=O)[C@H]5CCC[C@@H](O)C5)CC4)c3n2CC2CC2)nn2cc(C(=O)N3CCC[C@@H](N)C3)ccc12 [Example 447, ((R)-3-aminopiperidin-1-yl)(2-(1-(cyclopropylmethyl)-7-(1-((1S,3R)-3-hydroxycyclohexane-1-carbonyl)piperidin-4-yl)-1H-indol-2-yl)-3-methylpyrazolo[1,5-a]pyridin-6-yl)methanone] | 170 nM
11 | Cc1c(-c2cc3cccc(C4CCN(C(=O)[C@H]5CCC[C@@H](O)C5)CC4)c3n2CC2CC2)nn2cc(C(=O)N3C[C@H](N)C[C@@H](F)C3)ccc12 [Example 448, ((3R,5R)-3-amino-5-fluoropiperidin-1-yl)(2-(1-(cyclopropylmethyl)-7-(1-((1S,3R)-3-hydroxycyclohexane-1-carbonyl)piperidin-4-yl)-1H-indol-2-yl)-3-methylpyrazolo[1,5-a]pyridin-6-yl)methanone] | 70 nM
12 | CO[C@@H](C)C(=O)N1CCC(c2cccc3cc(-c4nn5cc(C(=O)N6CCC[C@@H](N)C6)ccc5c4C)n(CC4CC4)c23)CC1 [Example 454, (S)-1-(4-(2-(6-((R)-3-aminopiperidine-1-carbonyl)-3-methylpyrazolo[1,5-a]pyridin-2-yl)-1-(cyclopropylmethyl)-1H-indol-7-yl)piperidin-1-yl)-2-methoxypropan-1-one] | 550 nM
13 | COCC(=O)N1CCC(c2cccc3cc(-c4nn5cc(C(=O)N6CCC[C@@H](N)C6)ccc5c4C)n(CC4CC4)c23)CC1 [Example 455, (R)-1-(4-(2-(6-(3-aminopiperidine-1-carbonyl)-3-methylpyrazolo[1,5-a]pyridin-2-yl)-1-(cyclopropylmethyl)-1H-indol-7-yl)piperidin-1-yl)-2-methoxyethan-1-one] | 270 nM

Now those with a lower IC50, led by results:

Row | IC50 | Structure (SMILES)
14 | 50 nM | Cc1c(-c2cc3cccc(C4CCN(C(=O)[C@@H]5CCC[C@H](O)C5)CC4)c3n2CC2CC2)nn2cc(C(=O)N3C[C@H](N)C[C@@H](F)C3)ccc12 [Example 449, ((3R,5R)-3-amino-5-fluoropiperidin-1-yl)(2-(1-(cyclopropylmethyl)-7-(1-((1R,3S)-3-hydroxycyclohexane-1-carbonyl)piperidin-4-yl)-1H-indol-2-yl)-3-methylpyrazolo[1,5-a]pyridin-6-yl)methanone]
15 | 50 nM | Cc1c(-c2cc3cccc(C4CCN(C(=O)[C@H]5CC[C@@H](O)CC5)CC4)c3n2CC2CC2)nn2cc(C(=O)N3CCC[C@@H](N)C3)ccc12 [Example 450, ((R)-3-aminopiperidin-1-yl)(2-(1-(cyclopropylmethyl)-7-(1-((2s,4s)-4-hydroxycyclohexane-1-carbonyl)piperidin-4-yl)-1H-indol-2-yl)-3-methylpyrazolo[1,5-a]pyridin-6-yl)methanone]
16 | 30 nM | Cc1c(-c2cc3cccc(C4CCN(C(=O)CO)CC4)c3n2CC2CC2)nn2cc(C(=O)N3C[C@H](N)C[C@@H](F)C3)ccc12 [Example 438, 1-(4-(2-(6-((3R,5R)-3-amino-5-fluoropiperidine-1-carbonyl)-3-methylpyrazolo[1,5-a]pyridin-2-yl)-1-(cyclopropylmethyl)-1H-indol-7-yl)piperidin-1-yl)-2-hydroxyethan-1-one]
17 | 30 nM | Cc1c(-c2cc3cccc(C4CCN(C(=O)CO)CC4)c3n2CC2CC2)nn2cc(C(=O)N3CCC[C@@H](N)C3)ccc12 [Example 439, (R)-1-(4-(2-(6-(3-aminopiperidine-1-carbonyl)-3-methylpyrazolo[1,5-a]pyridin-2-yl)-1-(cyclopropylmethyl)-1H-indol-7-yl)piperidin-1-yl)-2-hydroxyethan-1-one]
18 | 30 nM | CCOCC(=O)N1CCC(c2cccc3cc(-c4nn5cc(C(=O)N6C[C@H](N)C[C@@H](F)C6)ccc5c4C)n(CC4CC4)c23)CC1 [Example 442, 1-(4-(2-(6-((3R,5R)-3-amino-5-fluoropiperidine-1-carbonyl)-3-methylpyrazolo[1,5-a]pyridin-2-yl)-1-(cyclopropylmethyl)-1H-indol-7-yl)piperidin-1-yl)-2-ethoxyethan-1-one]
19 | 30 nM | CC(=O)N1CCC(c2cccc3cc(-c4nn5cc(C(=O)N6C[C@H](N)C[C@@H](F)C6)ccc5c4C)n(CC4CC4)c23)CC1 [Example 452, 1-(4-(2-(6-((3R,5R)-3-amino-5-fluoropiperidine-1-carbonyl)-3-methylpyrazolo[1,5-a]pyridin-2-yl)-1-(cyclopropylmethyl)-1H-indol-7-yl)piperidin-1-yl)ethan-1-one]
20 | 10 nM | Cc1c(-c2cc3cccc(C4CCN(C(=O)[C@H]5CC[C@@H](O)CC5)CC4)c3n2CC2CC2)nn2cc(C(=O)N3C[C@H](N)C[C@@H](F)C3)ccc12 [Example 444, ((3R,5R)-3-amino-5-fluoropiperidin-1-yl)(2-(1-(cyclopropylmethyl)-7-(1-((1s,4s)-4-hydroxycyclohexane-1-carbonyl)piperidin-4-yl)-1H-indol-2-yl)-3-methylpyrazolo[1,5-a]pyridin-6-yl)methanone]
21 | 10 nM | Cc1c(-c2cc3cccc(C4CCN(C(=O)[C@H]5CC[C@H](O)CC5)CC4)c3n2CC2CC2)nn2cc(C(=O)N3C[C@H](N)C[C@@H](F)C3)ccc12 [Example 451, ((3R,5R)-3-amino-5-fluoropiperidin-1-yl)(2-(1-(cyclopropylmethyl)-7-(1-((1r,4r)-4-hydroxycyclohexane-1-carbonyl)piperidin-4-yl)-1H-indol-2-yl)-3-methylpyrazolo[1,5-a]pyridin-6-yl)methanone]
22 | 10 nM | COCC(=O)N1CCC(c2cccc3cc(-c4nn5cc(C(=O)N6CC7CCC6[C@@H]7N)ccc5c4C)n(CC4CC4)c23)CC1 (stereo partly drawn) [Example 453, 1-(4-(2-(6-((7R)-7-amino-2-azabicyclo[2.2.1]heptane-2-carbonyl)-3-methylpyrazolo[1,5-a]pyridin-2-yl)-1-(cyclopropylmethyl)-1H-indol-7-yl)piperidin-1-yl)-2-methoxyethan-1-one]
